Data: US11939361B2, “Compositions of peptide inhibitors of Interleukin-23 receptor” (Janssen Pharmaceutica NV, priority 2020, dated 2024)
Values joined by “and” are separate entries in the source; they are usually repeats but may differ in a detail not shown here. Equal entries are not always repeated. Where two headings read alike, the source gives them in different places.

How the values were obtained:
[1] = tested on: IL-23-induced IL-17A secretion; experiment: In vitro rat whole blood assay of IL-23-induced IL-17A secretion; format: cell-based
[2] = tested on: IL-23 and IL-1β-induced IL-17A secretion in whole blood; experiment: Rat whole blood assay ex vivo after oral dosing, IL-17A ELISA; format: in vivo, Sprague-Dawley rats; details: for inhibition of IL-23 and IL-1β-induced IL-17A secretion in whole blood: p.o., blood 2 h after dosing; for IC50: orally dosed rats, read-out: dilution-adjusted ex vivo IC50
Excerpt: A rat whole blood assay was used to evaluate the systemic pharmacologic activity of the orally administered peptide of SEQ ID NO: 1. After oral dosing Sprague-Dawley rats with the peptide of SEQ ID NO: 1, blood was drawn from the rats and stimulated ex-vivo with rat IL-23 plus IL-1β. An ELISA assay was used to measure the presence of IL-17A. The production of IL-17A is expected to be suppressed if IL-23 is inhibited. This assay confirms that systemic exposure of orally dosed peptide of SEQ ID NO: 1 is associated with systemic activity, as measured by lower IL-17A production.
Two or six hours after dosing, animals were euthanized and blood collected as described based on the following.
For determination of peptide concentration, an aliquot of blood from peptide-treated rats was deposited into K2EDTA microtainer tubes and processed to plasma by centrifugation at 16,100×g for 5 minutes. Plasma was deposited into 5% volume of protease inhibitor (1 cocktail tablet dissolved in 2 mL PBS without Ca^++ and Mg^++) and stored at −80° C. for bioanalysis of test article by LCMS. The remainder of each blood sample was separately diluted in pre-warmed RPMI-1640 (with glutamine and HEPES) at a ratio of one part blood to four parts medium. The diluted blood was mixed by pipetting and kept at room temperature while working stocks of rat IL-23 and IL-1β were prepared in RPMI-1640. The blood was mixed again and 240 μL was pipetted per well into 96-well, round-bottom assay plates, followed by IL-23 and IL-1β stimulation as described below.
A total of 10 μL of medium supplemented with IL-23 and IL-1β or IL-1β alone was added to each well of diluted blood such that the final concentration of IL-23 was 100, 20, or 4 ng/mL and the final concentration of IL-1β was 4 ng/mL. The assay plates were incubated at 37° C. in 5% CO2. After ˜24 hours, the assay plates were centrifuged at 1,300 rpm for 6 minutes at room temperature, and at least 100 μL of cell culture supernatant were collected into 96-well, V-bottom plates. The plates containing supernatants were sealed and placed on ice for immediate measurement of IL-17A or frozen at −80° C.
To measure IL-17A in cell culture supernatants, the thawed supernatants were centrifuged at 1,300 rpm for 10 minutes at 4° C. A total of 20 μL of cell culture supernatant was mixed with 80 μL of NS buffer (provided with the rat IL-17A ELISA kit). The diluted samples as well as a freshly prepared serial titration of rat IL-17A (for standard curve) were combined with affinity tag labeled capture and reporter conjugated detector antibodies in 96-well plates (provided with the rat IL-17A ELISA kit). Following a 1-hour incubation at room temperature with shaking, each well was washed 3 times with 350 μL/well wash buffer. After the final wash, the plates were inverted and blotted to remove excess liquid. The plates were developed with TMB substrate for 10 minutes, protected from light, with shaking. After stopping the colorimetric reaction, the absorbance in individual wells was read at 450 nm using a SpectraMax 340PC plate reader.
A standard curve was generated in duplicate for each ELISA plate. The standard curve data were analyzed with a four-parameter curve fit with 1/y^2 weighting using SoftMax Pro software. Supernatant IL-17A levels were interpolated or extrapolated from plate-specific standard curves using non-background subtracted optical density at 450 nm (OD450) values in SoftMax Pro and corrected for the dilution factor used in the ELISA assay in Microsoft Excel.

[3] = tested on: IL-23 induced IFNγ production; experiment: Ex vivo whole blood IL-23-induced IFNγ production assay, FIH MAD cohorts; format: in vivo
Method: An ex vivo whole blood IL-23 induced IFNγ assay was used to evaluate the systemic pharmacodynamic activity of the orally administered peptide of SEQ ID NO: 1 in the first-in-human study. […] On Days 1 and 10, when the assay was performed, subjects received their dose of placebo or peptide of SEQ ID NO: 1 following an overnight fast of approximately 10 hours and remained fasted for approximately 4 hours following dosing. After oral dosing on days 1 and 10, whole blood from the subjects was stimulated ex vivo with either IL-2 (10 ng/mL) and IL-18 (20 ng/mL) or IL-2 (10 ng/mL), IL-18 (20 ng/mL), and IL-23 (0.5 ng/mL) in TruCulture™ tubes (Rules Based Medicine, Q^2 solutions company) for stimulation of IFNγ production. The production of IFNγ is expected to be suppressed if IL-23R signaling is inhibited. Therefore, lower IFNγ production in the assay is associated with sufficient exposure to achieve systemic pharmacodynamic (PD) activity of orally dosed peptide of SEQ ID NO: 1.
Whole blood was collected in TruCulture™ tubes according to manufacturer instructions, the tubes were incubated at 37° C. in a block thermostat for 24 hours (±1 hour). Following incubation at 37° C., supernatants were harvested according to TruCultube™ tube manufacturer instructions (Rules Based Medicine, Q^2 solutions company). An ELISA assay was used to quantify the levels of IFNg in the supernatants.

[4] = human, 25 mg, 100 mg, 300 mg and 1000 mg cohorts, oral once a day

CC(=O)NCCCC[C@@H]1NC(=O)[C@H](Cc2c[nH]c3c(C)cccc23)NC(=O)[C@H]([C@@H](C)O)NC(=O)[C@H](CC(N)=O)NC(=O)[C@@H](NC(C)=O)C(C)(C)SSC(C)(C)[C@@H](C(=O)N[C@@H](Cc2ccc(OCCN)cc2)C(=O)N[C@@H](Cc2ccc3ccccc3c2)C(=O)NC2(C(=O)N[C@@H](CCC(=O)O)C(=O)N[C@@H](CC(N)=O)C(=O)N[C@@H](Cc3cccnc3)C(=O)N(C)CC(N)=O)CCOCC2)NC1=O [SEQ ID NO: 1, Ac-[Pen]*—N-T-[W(7-Me)]-[Lys(Ac)]-[Pen]*-Phe[4-(2-aminoethoxy)]-[2-Nal]-[THP]-E-N-[3-Pal]-Sarc-NH2]
IC50 ([1]; read-out: IC50 at 4 ng/mL IL-23 stimulation, individual vehicle-dosed rats, plus 4 ng/mL IL-1β, listed as peptide of SEQ ID NO: 1): 0.012 nM and 0.027 nM and 0.045 nM and 0.013 nM and 0.06 nM and 0.066 nM | IC50 ([1]; read-out: IC50 at 4 ng/mL IL-23 stimulation, pooled blood (n = 6 naïve rats), plus 4 ng/mL IL-1β, listed as peptide of SEQ ID NO: 1): 0.1 nM and 0.11 nM | IC50 ([1]; read-out: IC50 at 20 ng/mL IL-23 stimulation, individual vehicle-dosed rats, listed as peptide of SEQ ID NO: 1): 0.24 nM and 0.16 nM and 0.22 nM and 0.23 nM and 0.34 nM and 0.29 nM | IC50 ([1]; read-out: Mean IC50 at 4 ng/mL IL-23 stimulation, in vitro rat whole blood, mean of all experiments): 0.054 ± 0.034 nM | IC50 ([1]; read-out: Mean IC50 at 20 ng/mL IL-23 stimulation, in vitro rat whole blood, n=6 rats): 0.25 ± 0.062 nM | median IL-17A production relative to vehicle control ([2]; 10 mg/kg p.o., 2 hours post-dosing, 100, 20, or 4 ng/mL IL-23 and 4 ng/mL IL-1β): significantly reduced | median IL-17A levels ([2]; 10 mg/kg p.o., 6 hours post-dosing, 4 ng/mL IL-23): significant decrease | effect on ex vivo IL-17A response ([2]; 10 mg/kg p.o., 6 hours post-dosing, 100 and 20 ng/mL IL-23 and IL-1β): no significant effect | inhibition of IL-23 and IL-1β-induced IL-17A secretion in whole blood ([2]; 0.03-100 mg/kg): dose-dependent inhibition | inhibition of IL-23 and IL-1β-induced IL-17A secretion in whole blood ([2]; doses of 1 mg/kg or lower): limited effect | inhibition of IL-23 and IL-1β-induced IL-17A secretion in whole blood ([2]; doses of 30 and 100 mg/kg): complete or nearly complete inhibition | IC50 ([2]; blood challenged with 4 ng/mL IL-23 plus 4 ng/mL IL-1β): 0.032 nM | IC50 ([2]; blood challenged with 20 ng/mL IL-23 plus 4 ng/mL IL-1β): 0.27 nM | inhibition of IL-23 stimulated IFNγ production in human whole blood ([3]; 10-1000 mg oral once a day, Day 1 and Day 10): dose dependent inhibition | maximum inhibition of IL-23 induced IFNγ production (mean systemic PD activity) [3, 4]: ~100% | time for which >50% inhibition of IFNγ production was maintained [3, 4]: ≥ 8 h
